# Measured values reported in patent EP4527828A1, “BIPHENYL COMPOUND, PHARMACEUTICAL COMPOSITION, METHOD FOR PREPARING SAME, AND USE THEREOF” (Longivitron (Suzhou) Biotechnology Co., Ltd, priority 2022, dated 2023).
# Columns and labels:
# LAG3/MHCII = molecular target: T1, LAG3/MHCII (Homo sapiens, UniProt P18627); experiment: HTRF binding inhibition of LAG3 and its ligand MHCII; settings: for IC50: binding inhibition LAG3/MHCII; for inhibition at 10 µM: compound at 10 µM, read-out: Inhibition rate
# T1 sequence (P18627 23-450 limits assumed): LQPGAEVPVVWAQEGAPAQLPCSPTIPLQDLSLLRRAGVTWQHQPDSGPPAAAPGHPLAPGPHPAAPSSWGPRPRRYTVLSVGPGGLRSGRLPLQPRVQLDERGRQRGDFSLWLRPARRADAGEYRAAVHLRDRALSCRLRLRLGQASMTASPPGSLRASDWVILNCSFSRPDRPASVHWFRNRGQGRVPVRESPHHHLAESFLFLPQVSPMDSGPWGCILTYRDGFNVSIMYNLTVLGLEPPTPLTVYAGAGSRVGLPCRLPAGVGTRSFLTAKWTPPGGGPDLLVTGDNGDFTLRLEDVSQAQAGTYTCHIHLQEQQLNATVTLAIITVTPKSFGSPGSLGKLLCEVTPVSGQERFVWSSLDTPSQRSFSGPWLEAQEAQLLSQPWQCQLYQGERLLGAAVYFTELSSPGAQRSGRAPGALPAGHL
# Description: HTRF (Homogeneous time-resolved fluorescence) is based on two techniques, fluorescence resonance energy transfer (FRET) and time-resolved fluorescence (TRF). The detection was carried out using a 384-well plate. 2 µL of a compound to be tested with an appropriate concentration was collected, 4 µL of Tag1-LAG3 protein (with a final concentration of 10 nmol·L^-1) was added, 4 µL of Tag2-MHCII (with a final concentration of 20 nmol·L^-1) was added, and the plate was incubated at room temperature for 15 min. 10 µL of Anti-Tag1-Tb working solution (prepared by adding 25 µL of Anti-Tag1-Tab mother solution to 2475 µL of dilution buffer) was added, 10 µL of Anti-Tag2-XL665 working solution (prepared by adding 25 µL of Tag2-XL665 mother solution to 2475 µL of dilution buffer) was added, and the plate was sealed with a film and incubated at room temperature for 1 h. The detection was carried out using a Perkin Elma Envision instrument.
# Human LAG3 protein = molecular target: T2, Human LAG3 protein (Homo sapiens, UniProt P18627); experiment: SPR interaction assay, CM5 chip amino coupling, human LAG3; format: binding
# T2 sequence (P18627 23-525): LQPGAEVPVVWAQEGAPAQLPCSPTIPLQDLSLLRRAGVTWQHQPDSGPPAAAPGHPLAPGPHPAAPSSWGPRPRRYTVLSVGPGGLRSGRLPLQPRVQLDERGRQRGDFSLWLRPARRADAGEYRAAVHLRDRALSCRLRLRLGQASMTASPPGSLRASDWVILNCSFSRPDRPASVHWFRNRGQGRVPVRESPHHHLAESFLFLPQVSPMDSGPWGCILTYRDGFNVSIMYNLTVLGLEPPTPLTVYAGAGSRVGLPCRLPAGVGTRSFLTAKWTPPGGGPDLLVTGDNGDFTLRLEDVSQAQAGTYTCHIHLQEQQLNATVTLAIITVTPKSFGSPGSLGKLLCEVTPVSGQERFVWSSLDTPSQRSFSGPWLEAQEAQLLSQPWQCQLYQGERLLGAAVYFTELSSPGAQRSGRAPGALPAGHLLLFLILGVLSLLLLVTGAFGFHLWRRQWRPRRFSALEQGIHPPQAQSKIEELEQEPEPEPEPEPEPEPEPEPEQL
# Source text: (§1) A surface plasmon is an electromagnetic wave on a metal surface and is generated by the interaction of photons and electrons which are freely vibrated. Surface plasmon resonance (SPR) is an optical phenomenon that occurs on the surfaces of two media, and such a phenomenon can be induced by photons or electrons. When light enters an optically thinner medium from an optically denser medium, the phenomenon of total reflection occurs, and an evanescent wave is generated and enters the optically thinner medium. When the totally reflected evanescent wave meets the plasmon wave on the metal surface, resonance may occur, the energy of the reflected light decreases, and a resonance peak occurs on the energy spectrum of the reflected light. Such a resonance is called surface plasmon resonance. The angle of incidence causing the surface plasmon resonance is called an SPR angle. An SPR biosensor provides a sensitive, non-labeled detection technique for monitoring intermolecular interactions in real time. The sensor detects the change in the SPR angle, and the SPR is related to the refractive index of the metal surface. When an analyte binds to the chip surface, the refractive index of the chip surface changes, thus causing the change in the SPR angle. This is the basic principle for the SPR biosensor to detect intermolecular interactions in real time. During the interaction analysis, the change in the SPR angle is recorded on the sensorgram in real time.
# (§2) Through the information query, the theoretical isoelectric point of the LAG3 protein is about 9.82, and the amino coupling method was contemplated to immobilize the protein. Since the main ligands of the LAG3 protein are FGL1 and MHCII proteins, after the LAG3 protein was coupled, the FGL1 protein sampling method was used to verify the protein activity.
# (§3) Protein coupling buffer solution: 1.05× PBS-P+; 1.02× PBS-P+
# (§4) Interaction buffer solution: 1.0× PBS-P+, 5% DMSO; 1.0× PBS-P+, 2% DMSO
# (§5) In this experiment, by using the CM5 chip amino coupling method, the human LAG3 protein was immobilized to the Fc2 or Fc3 channel, and the mouse LAG3 protein was immobilized to the Fc3 or Fc4 channel.
# (§6) LAG3 protein coupling conditions were as follows: the concentration was about 25 µg/mL, the system was sodium acetate solution with a pH of 5.5, the chip activation time was 420 s, and the blocking time was 420 s.
# (§7) LAG3 protein coupling conditions were as follows: the concentration was about 50 µg/mL, the system was sodium acetate solution with a pH of 4.5, the chip activation time was 420 s, and the blocking time was 420 s.
# Mouse LAG3 protein = molecular target: T3, Mouse LAG3 protein (Mus musculus, UniProt Q61790); experiment: SPR interaction assay, CM5 chip amino coupling, mouse LAG3; format: binding
# T3 sequence (Q61790 24-521): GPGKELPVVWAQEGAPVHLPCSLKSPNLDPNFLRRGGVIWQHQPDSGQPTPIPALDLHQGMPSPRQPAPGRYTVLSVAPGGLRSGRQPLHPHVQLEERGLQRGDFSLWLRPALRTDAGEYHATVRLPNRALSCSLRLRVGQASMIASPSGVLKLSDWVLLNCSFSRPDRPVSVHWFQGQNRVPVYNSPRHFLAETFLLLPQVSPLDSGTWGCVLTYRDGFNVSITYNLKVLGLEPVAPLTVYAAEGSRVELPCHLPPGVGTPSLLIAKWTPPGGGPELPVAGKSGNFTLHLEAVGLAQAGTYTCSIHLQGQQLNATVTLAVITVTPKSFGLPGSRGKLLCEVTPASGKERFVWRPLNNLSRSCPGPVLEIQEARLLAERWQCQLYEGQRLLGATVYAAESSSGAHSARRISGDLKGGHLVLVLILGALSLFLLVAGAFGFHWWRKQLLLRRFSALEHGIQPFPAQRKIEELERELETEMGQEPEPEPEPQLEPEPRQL
# Source text: as §1, §2, §3, §4, §5, §6, §7
# Human FGL1 protein = molecular target: T4, Human FGL1 protein (Homo sapiens, UniProt Q08830); experiment: SPR interaction assay, human FGL1; format: binding; settings: SPR
# T4 sequence (Q08830 23-312): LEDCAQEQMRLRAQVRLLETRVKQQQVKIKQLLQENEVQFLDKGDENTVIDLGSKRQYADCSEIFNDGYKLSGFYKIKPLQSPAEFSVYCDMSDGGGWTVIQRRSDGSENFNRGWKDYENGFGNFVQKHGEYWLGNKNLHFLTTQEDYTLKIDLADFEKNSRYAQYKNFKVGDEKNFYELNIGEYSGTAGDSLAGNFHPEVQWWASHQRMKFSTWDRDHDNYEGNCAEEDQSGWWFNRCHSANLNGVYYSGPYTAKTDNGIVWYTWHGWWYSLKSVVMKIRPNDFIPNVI
# Source text: as §1, §3, §4
compound,measurement,setting,value
CCCCCCOc1ccc(C(=O)O)cc1-c1cc(C(=O)NCCCNC(=O)C(F)(F)F)ccc1OCCCCCC [Compound 9],IC50,LAG3/MHCII,5.67 µM
same,interaction with the human LAG3 protein,Human LAG3 protein,interacts with the human LAG3 protein
same,Rmax,Human LAG3 protein; ligand Human LAG3 protein,129.5 RU
same,Kd,"Human LAG3 protein; ligand Human LAG3 protein, Compound 9 fitted in steady-state mode",324 µM
same,Note,"Human LAG3 protein; ligand Human LAG3 protein, bound or not bound",Bound
same,interaction with the mouse LAG3 protein,Mouse LAG3 protein,does not interact with the mouse LAG3 protein
same,Rmax,Mouse LAG3 protein; ligand Mouse LAG3 protein,8.130 E+4 RU
same,Note,"Mouse LAG3 protein; ligand Mouse LAG3 protein, bound or not bound",Not bound
same,interaction with the human FGL1 protein,Human FGL1 protein,does not interact with the human FGL1 protein
same,Rmax,Human FGL1 protein; ligand FGL1 protein,3.346 E+5 RU
same,Note,"Human FGL1 protein; ligand FGL1 protein, bound or not bound",Not bound
CCCCCCCOc1ccc2cc1-c1cc(ccc1OCCCCCCC)C(=O)CCCCCC2=O [Compound 6],IC50,LAG3/MHCII,25.7 µM
"COc1ccc2cc1-c1cc(ccc1OC)C(=O)CCCCCC2=O [Compound 1, 1^6,2^6-dimethoxy-1,2(1,3)-diphenylcyclononane-3,9-dione]",inhibition at 10 µM,LAG3/MHCII,25.7%
CCCCCCOc1ccc(C(=O)NCCCCN)cc1-c1cc(C(=O)OC)ccc1OCCCCCC [Compound 12],IC50,LAG3/MHCII,> 100 µM
COCCCCOc1ccc2cc1-c1cc(ccc1OCCCCOC)C(=O)CCCCCC2=O [Compound 7],IC50,LAG3/MHCII,35.4 µM
CCCCCCOc1ccc(C(=O)O)cc1-c1cc(C(=O)NCCCCCNC(=O)C(F)(F)F)ccc1OCCCCCC [Compound 10],IC50,LAG3/MHCII,9.91 µM
CCCCCOc1ccc2cc1-c1cc(ccc1OCCCCC)C(=O)CCCCCC2=O [Compound 5],IC50,LAG3/MHCII,33.2 µM
CCCCCCOc1ccc(C(=O)O)cc1-c1cc(C(=O)NCCNC(=O)C(F)(F)F)ccc1OCCCCCC [Compound 11],IC50,LAG3/MHCII,7.96 µM
O=C1CCCCCC(=O)c2ccc(OC3CCCC3)c(c2)-c2cc1ccc2O [Compound 3],IC50,LAG3/MHCII,24.2 µM
"O=C1CCCCCC(=O)c2ccc(O)c(c2)-c2cc1ccc2O [Compound 2, 1^6,2^6-dihydroxy-1,2(1,3)-diphenylcyclononane-3,9-dione]",inhibition at 10 µM,LAG3/MHCII,45.9%
